Test results published in ChEMBL document CHEMBL3132757, “A new class of fluorinated 5-pyrrolidinylsulfonyl isatin caspase inhibitors for PET imaging of apoptosis” (Medchemcomm, 2013).

Target: T1, Caspase-3 (Homo sapiens, UniProt P42574)
T1 sequence (P42574 whole entry): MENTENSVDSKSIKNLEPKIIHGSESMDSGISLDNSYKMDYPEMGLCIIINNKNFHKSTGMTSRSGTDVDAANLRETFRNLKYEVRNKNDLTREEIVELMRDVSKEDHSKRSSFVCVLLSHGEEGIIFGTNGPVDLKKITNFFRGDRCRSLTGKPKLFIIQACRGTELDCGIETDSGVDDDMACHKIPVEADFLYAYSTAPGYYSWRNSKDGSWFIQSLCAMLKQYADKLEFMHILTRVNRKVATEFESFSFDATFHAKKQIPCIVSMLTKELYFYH
Assay: Inhibition of recombinant human caspase-3 expressed in Escherichia coli using Ac-DEVD-AMC as substrate preincubated for 30 mins before substrate addition measured after 2 hrs

Row | IC50 | SMILES
1 | 19.2 nM | O=C1C(=O)N(Cc2ccc(OCCF)cc2)c2ccc(S(=O)(=O)N3CCC[C@H]3CF)cc21
2 | 4.4 nM | O=C1C(=O)N(Cc2nnnn2Cc2ccccc2)c2ccc(S(=O)(=O)N3CCC[C@H]3CF)cc21
3 | 6.2 nM | O=C1C(=O)N(Cc2ccc(Br)cc2)c2ccc(S(=O)(=O)N3CCC[C@H]3CF)cc21
4 | 12.8 nM | O=C1C(=O)N(Cc2cccc([N+](=O)[O-])c2)c2ccc(S(=O)(=O)N3CCC[C@H]3CF)cc21
5 | 7.1 nM | O=C1C(=O)N(Cc2ccc(Cl)cc2)c2ccc(S(=O)(=O)N3CCC[C@H]3CF)cc21
6 | 6.1 nM | O=C1C(=O)N(Cc2ccc(OCCF)cc2)c2ccc(S(=O)(=O)N3CCC[C@H]3COc3ccccc3)cc21
7 | 13.7 nM | COc1ccc(CN2C(=O)C(=O)c3cc(S(=O)(=O)N4CCC[C@H]4CF)ccc32)cc1
8 | 9.6 nM | O=C1C(=O)N(Cc2ccccc2I)c2ccc(S(=O)(=O)N3CCC[C@H]3CF)cc21

System: not listed separately
Assay: Lipophilicity, log P of the compound by HPLC method
Assay type: physicochemical

Row | logP | SMILES
9 | 2.33 | O=C1C(=O)N(Cc2ccc(OCCF)cc2)c2ccc(S(=O)(=O)N3CCC[C@H]3CF)cc21
10 | 1.94 | O=C1C(=O)N(Cc2nnnn2Cc2ccccc2)c2ccc(S(=O)(=O)N3CCC[C@H]3CF)cc21
11 | 3.11 | O=C1C(=O)N(Cc2ccc(Br)cc2)c2ccc(S(=O)(=O)N3CCC[C@H]3CF)cc21
12 | 2.28 | O=C1C(=O)N(Cc2cccc([N+](=O)[O-])c2)c2ccc(S(=O)(=O)N3CCC[C@H]3CF)cc21
13 | 2.96 | O=C1C(=O)N(Cc2ccc(Cl)cc2)c2ccc(S(=O)(=O)N3CCC[C@H]3CF)cc21
14 | 3.78 | O=C1C(=O)N(Cc2ccc(OCCF)cc2)c2ccc(S(=O)(=O)N3CCC[C@H]3COc3ccccc3)cc21
15 | 2.65 | COc1ccc(CN2C(=O)C(=O)c3cc(S(=O)(=O)N4CCC[C@H]4CF)ccc32)cc1
16 | 3.25 | O=C1C(=O)N(Cc2ccccc2I)c2ccc(S(=O)(=O)N3CCC[C@H]3CF)cc21

Target: Caspase-8 (Homo sapiens, UniProt Q14790)
Sequence (Q14790 217-374 limits assumed): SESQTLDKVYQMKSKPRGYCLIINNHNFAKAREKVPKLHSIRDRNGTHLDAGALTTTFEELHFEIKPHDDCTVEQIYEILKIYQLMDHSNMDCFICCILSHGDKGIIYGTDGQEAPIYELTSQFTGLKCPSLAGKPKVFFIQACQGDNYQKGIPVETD
Sequence (Q14790 385-479 limits assumed): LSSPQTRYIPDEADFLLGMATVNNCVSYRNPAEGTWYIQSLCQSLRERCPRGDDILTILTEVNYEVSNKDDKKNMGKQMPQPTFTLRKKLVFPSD
Assay: Inhibition of recombinant human caspase-8 expressed in Escherichia coli using Ac-IETD-AMC as substrate preincubated for 30 mins before substrate addition measured after 2 hrs

Row | IC50 | SMILES
17 | > 10000 nM | O=C1C(=O)N(Cc2ccc(OCCF)cc2)c2ccc(S(=O)(=O)N3CCC[C@H]3CF)cc21
18 | > 10000 nM | O=C1C(=O)N(Cc2nnnn2Cc2ccccc2)c2ccc(S(=O)(=O)N3CCC[C@H]3CF)cc21
19 | > 10000 nM | O=C1C(=O)N(Cc2ccc(Br)cc2)c2ccc(S(=O)(=O)N3CCC[C@H]3CF)cc21
20 | > 10000 nM | O=C1C(=O)N(Cc2cccc([N+](=O)[O-])c2)c2ccc(S(=O)(=O)N3CCC[C@H]3CF)cc21
21 | > 10000 nM | O=C1C(=O)N(Cc2ccc(Cl)cc2)c2ccc(S(=O)(=O)N3CCC[C@H]3CF)cc21
22 | > 10000 nM | O=C1C(=O)N(Cc2ccc(OCCF)cc2)c2ccc(S(=O)(=O)N3CCC[C@H]3COc3ccccc3)cc21
23 | > 10000 nM | COc1ccc(CN2C(=O)C(=O)c3cc(S(=O)(=O)N4CCC[C@H]4CF)ccc32)cc1
24 | > 10000 nM | O=C1C(=O)N(Cc2ccccc2I)c2ccc(S(=O)(=O)N3CCC[C@H]3CF)cc21

Target: T2, Caspase-6 (Homo sapiens, UniProt P55212)
T2 sequence (P55212 whole entry): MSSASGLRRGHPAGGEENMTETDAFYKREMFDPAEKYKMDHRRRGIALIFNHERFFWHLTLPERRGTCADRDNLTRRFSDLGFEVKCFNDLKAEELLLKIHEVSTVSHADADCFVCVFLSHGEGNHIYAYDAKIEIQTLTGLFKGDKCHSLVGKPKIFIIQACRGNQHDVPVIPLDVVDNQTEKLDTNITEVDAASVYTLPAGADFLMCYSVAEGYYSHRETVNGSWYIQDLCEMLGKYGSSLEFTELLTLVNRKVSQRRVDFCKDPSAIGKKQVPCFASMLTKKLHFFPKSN
Assay: Inhibition of recombinant human caspase-6 expressed in Escherichia coli using Ac-VEID-AMC as substrate preincubated for 30 mins before substrate addition measured after 2 hrs

Row | IC50 | SMILES
25 | > 10000 nM | O=C1C(=O)N(Cc2ccc(OCCF)cc2)c2ccc(S(=O)(=O)N3CCC[C@H]3CF)cc21
26 | > 10000 nM | O=C1C(=O)N(Cc2nnnn2Cc2ccccc2)c2ccc(S(=O)(=O)N3CCC[C@H]3CF)cc21
27 | > 10000 nM | O=C1C(=O)N(Cc2ccc(Br)cc2)c2ccc(S(=O)(=O)N3CCC[C@H]3CF)cc21
28 | > 10000 nM | O=C1C(=O)N(Cc2cccc([N+](=O)[O-])c2)c2ccc(S(=O)(=O)N3CCC[C@H]3CF)cc21
29 | > 10000 nM | O=C1C(=O)N(Cc2ccc(Cl)cc2)c2ccc(S(=O)(=O)N3CCC[C@H]3CF)cc21
30 | > 10000 nM | O=C1C(=O)N(Cc2ccc(OCCF)cc2)c2ccc(S(=O)(=O)N3CCC[C@H]3COc3ccccc3)cc21
31 | > 10000 nM | COc1ccc(CN2C(=O)C(=O)c3cc(S(=O)(=O)N4CCC[C@H]4CF)ccc32)cc1
32 | 3880 nM | O=C1C(=O)N(Cc2ccccc2I)c2ccc(S(=O)(=O)N3CCC[C@H]3CF)cc21

Target: T3, Caspase-7 (Homo sapiens, UniProt P55210)
T3 sequence (P55210 whole entry): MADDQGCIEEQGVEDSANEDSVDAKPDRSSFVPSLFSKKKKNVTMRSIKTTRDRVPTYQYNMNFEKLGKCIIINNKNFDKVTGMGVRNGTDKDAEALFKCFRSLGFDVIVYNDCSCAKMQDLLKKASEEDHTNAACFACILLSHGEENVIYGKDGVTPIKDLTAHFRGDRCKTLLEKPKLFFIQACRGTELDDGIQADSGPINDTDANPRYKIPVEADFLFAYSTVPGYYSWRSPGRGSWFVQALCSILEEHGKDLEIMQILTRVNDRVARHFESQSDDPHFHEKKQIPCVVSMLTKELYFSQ
Assay: Inhibition of recombinant human caspase-7 expressed in Escherichia coli using Ac-DEVD-AMC as substrate preincubated for 30 mins before substrate addition measured after 2 hrs

Row | IC50 | SMILES
33 | 41.4 nM | O=C1C(=O)N(Cc2ccc(OCCF)cc2)c2ccc(S(=O)(=O)N3CCC[C@H]3CF)cc21
34 | 25.3 nM | O=C1C(=O)N(Cc2nnnn2Cc2ccccc2)c2ccc(S(=O)(=O)N3CCC[C@H]3CF)cc21
35 | 15.9 nM | O=C1C(=O)N(Cc2ccc(Br)cc2)c2ccc(S(=O)(=O)N3CCC[C@H]3CF)cc21
36 | 16.5 nM | O=C1C(=O)N(Cc2cccc([N+](=O)[O-])c2)c2ccc(S(=O)(=O)N3CCC[C@H]3CF)cc21
37 | 14.2 nM | O=C1C(=O)N(Cc2ccc(Cl)cc2)c2ccc(S(=O)(=O)N3CCC[C@H]3CF)cc21
38 | 9.6 nM | COc1ccc(CN2C(=O)C(=O)c3cc(S(=O)(=O)N4CCC[C@H]4CF)ccc32)cc1
39 | 24 nM | O=C1C(=O)N(Cc2ccccc2I)c2ccc(S(=O)(=O)N3CCC[C@H]3CF)cc21

Target: T4, Caspase-1 (Homo sapiens, UniProt P29466)
T4 sequence (P29466 whole entry): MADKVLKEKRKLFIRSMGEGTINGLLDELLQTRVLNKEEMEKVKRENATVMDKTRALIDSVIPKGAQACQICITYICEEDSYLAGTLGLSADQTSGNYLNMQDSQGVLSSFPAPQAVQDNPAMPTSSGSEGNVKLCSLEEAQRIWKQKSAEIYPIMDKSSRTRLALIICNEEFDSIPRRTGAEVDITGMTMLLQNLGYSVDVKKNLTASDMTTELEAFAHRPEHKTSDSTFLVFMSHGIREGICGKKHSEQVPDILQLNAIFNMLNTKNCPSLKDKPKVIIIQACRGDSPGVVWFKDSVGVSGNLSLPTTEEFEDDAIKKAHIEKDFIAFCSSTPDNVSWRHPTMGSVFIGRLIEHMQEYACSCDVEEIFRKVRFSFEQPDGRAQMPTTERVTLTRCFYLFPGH
Assay: Inhibition of recombinant human caspase-1 expressed in Escherichia coli using Ac-YVAD-AMC as substrate preincubated for 30 mins before substrate addition measured after 2 hrs

Row | IC50 | SMILES
40 | > 10000 nM | O=C1C(=O)N(Cc2ccc(OCCF)cc2)c2ccc(S(=O)(=O)N3CCC[C@H]3CF)cc21
41 | 1880 nM | O=C1C(=O)N(Cc2nnnn2Cc2ccccc2)c2ccc(S(=O)(=O)N3CCC[C@H]3CF)cc21
42 | > 10000 nM | O=C1C(=O)N(Cc2ccc(Br)cc2)c2ccc(S(=O)(=O)N3CCC[C@H]3CF)cc21
43 | 4690 nM | O=C1C(=O)N(Cc2cccc([N+](=O)[O-])c2)c2ccc(S(=O)(=O)N3CCC[C@H]3CF)cc21
44 | > 10000 nM | O=C1C(=O)N(Cc2ccc(Cl)cc2)c2ccc(S(=O)(=O)N3CCC[C@H]3CF)cc21
45 | > 10000 nM | O=C1C(=O)N(Cc2ccc(OCCF)cc2)c2ccc(S(=O)(=O)N3CCC[C@H]3COc3ccccc3)cc21
46 | > 10000 nM | COc1ccc(CN2C(=O)C(=O)c3cc(S(=O)(=O)N4CCC[C@H]4CF)ccc32)cc1
47 | 522 nM | O=C1C(=O)N(Cc2ccccc2I)c2ccc(S(=O)(=O)N3CCC[C@H]3CF)cc21
